pIC50: −log10 of the molar value. Where a name gives a salt, the structure may show the parent alone.
Tests used:
[1] = molecular target: T1, c-Met (cytoplasmic domain) (Homo sapiens, UniProt P08581); assay: c-Met Kinase Assay (ELISA/TRF, PLC-γ substrate); type: biochemical; conditions: 3 μM ATP (Km level); read-out: c-Met Kinase Inhibition (IC50)
T1 construct: Reactions were initiated with 30 ng/mL c-Met (cytoplasmic domain, Invitrogen Corporation #PV3143); purchased Invitrogen Corporation PV3143
Description: Example compounds were tested for their ability to inhibit the kinase activity of baculovirus-expressed ALK using a modification of the ELISA protocol reported for trkA in Angeles, T. S. et al., Anal. Biochem. 1996, 236, 49-55, which is incorporated herein by reference in its entirety. Phosphorylation of the substrate, phospholipase C-gamma (PLC-γ) generated as a fusion protein with glutathione S-transferase (GST) as reported in Rotin, D. et al., EMBO J. 1992, 11, 559-567, which is incorporated herein by reference in its entirety, was detected with a europium-labeled anti-phosphotyrosine antibody and measured by time-resolved fluorescence (TRF). Briefly, each 96-well plate was coated with 100 μL/well of 10 μg/mL substrate (phospholipase C-γ) in Tris-buffered saline (TBS). […] The reaction was initiated by adding enzyme (30 ng/ml ALK) and was allowed to proceed at 37° C. for 15 minutes. Detection of the phosphorylated product was performed by adding 100 μl/well of Eu-N1 labeled PT66 antibody (Perkin Elmer # AD0041). Incubation at 37° C. then proceeded for one (1) hour, followed by addition of 100 μL enhancement solution (Wallac #1244-105). The plate was gently agitated and after thirty minutes, the fluorescence of the resulting solution was measured using the EnVision 2100 (or 2102) multilabel plate reader (Perkin Elmer).
Data analysis was performed using ActivityBase (IDBS, Guilford, UK). IC50 values were calculated by plotting percent inhibition versus log10 of the concentration of compound and fitting to the nonlinear regression sigmoidal dose-response (variable slope) equation in XLFit (IDBS, Guilford, UK).
Reactions were initiated with 30 ng/mL c-Met (cytoplasmic domain, Invitrogen Corporation #PV3143).

[2] = molecular target: baculovirus-expressed ALK (Homo sapiens, UniProt Q9UM73); assay: ALK Kinase Assay (ELISA/TRF, PLC-γ substrate); type: biochemical; conditions: read-out: ALK Kinase Inhibition (IC50); also: 1 µM ATP (Km level)
Procedure, shortened: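 Substrate phosphorylation by 30 ng/ml ALK (37° C, 15 min) on PLC-γ-coated wells is quantified via time-resolved europium fluorescence from an anti-phosphotyrosine antibody. Percent inhibition against log10 compound concentration yields IC50 by nonlinear regression.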

T1 sequence (P08581 956-1390 limits assumed): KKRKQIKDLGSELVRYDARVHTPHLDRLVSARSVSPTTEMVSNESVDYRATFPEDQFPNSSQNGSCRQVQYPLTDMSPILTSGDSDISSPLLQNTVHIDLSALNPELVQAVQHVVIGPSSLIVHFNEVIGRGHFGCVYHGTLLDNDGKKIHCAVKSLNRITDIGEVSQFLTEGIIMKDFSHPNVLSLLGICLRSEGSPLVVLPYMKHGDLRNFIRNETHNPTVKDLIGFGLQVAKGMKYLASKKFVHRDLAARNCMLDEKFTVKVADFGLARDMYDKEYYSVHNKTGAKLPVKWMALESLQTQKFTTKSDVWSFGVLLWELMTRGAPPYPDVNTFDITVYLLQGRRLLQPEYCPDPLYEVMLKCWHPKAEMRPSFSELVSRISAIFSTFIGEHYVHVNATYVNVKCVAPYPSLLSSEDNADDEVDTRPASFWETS
Sequence of baculovirus-expressed ALK (Q9UM73 19-1620): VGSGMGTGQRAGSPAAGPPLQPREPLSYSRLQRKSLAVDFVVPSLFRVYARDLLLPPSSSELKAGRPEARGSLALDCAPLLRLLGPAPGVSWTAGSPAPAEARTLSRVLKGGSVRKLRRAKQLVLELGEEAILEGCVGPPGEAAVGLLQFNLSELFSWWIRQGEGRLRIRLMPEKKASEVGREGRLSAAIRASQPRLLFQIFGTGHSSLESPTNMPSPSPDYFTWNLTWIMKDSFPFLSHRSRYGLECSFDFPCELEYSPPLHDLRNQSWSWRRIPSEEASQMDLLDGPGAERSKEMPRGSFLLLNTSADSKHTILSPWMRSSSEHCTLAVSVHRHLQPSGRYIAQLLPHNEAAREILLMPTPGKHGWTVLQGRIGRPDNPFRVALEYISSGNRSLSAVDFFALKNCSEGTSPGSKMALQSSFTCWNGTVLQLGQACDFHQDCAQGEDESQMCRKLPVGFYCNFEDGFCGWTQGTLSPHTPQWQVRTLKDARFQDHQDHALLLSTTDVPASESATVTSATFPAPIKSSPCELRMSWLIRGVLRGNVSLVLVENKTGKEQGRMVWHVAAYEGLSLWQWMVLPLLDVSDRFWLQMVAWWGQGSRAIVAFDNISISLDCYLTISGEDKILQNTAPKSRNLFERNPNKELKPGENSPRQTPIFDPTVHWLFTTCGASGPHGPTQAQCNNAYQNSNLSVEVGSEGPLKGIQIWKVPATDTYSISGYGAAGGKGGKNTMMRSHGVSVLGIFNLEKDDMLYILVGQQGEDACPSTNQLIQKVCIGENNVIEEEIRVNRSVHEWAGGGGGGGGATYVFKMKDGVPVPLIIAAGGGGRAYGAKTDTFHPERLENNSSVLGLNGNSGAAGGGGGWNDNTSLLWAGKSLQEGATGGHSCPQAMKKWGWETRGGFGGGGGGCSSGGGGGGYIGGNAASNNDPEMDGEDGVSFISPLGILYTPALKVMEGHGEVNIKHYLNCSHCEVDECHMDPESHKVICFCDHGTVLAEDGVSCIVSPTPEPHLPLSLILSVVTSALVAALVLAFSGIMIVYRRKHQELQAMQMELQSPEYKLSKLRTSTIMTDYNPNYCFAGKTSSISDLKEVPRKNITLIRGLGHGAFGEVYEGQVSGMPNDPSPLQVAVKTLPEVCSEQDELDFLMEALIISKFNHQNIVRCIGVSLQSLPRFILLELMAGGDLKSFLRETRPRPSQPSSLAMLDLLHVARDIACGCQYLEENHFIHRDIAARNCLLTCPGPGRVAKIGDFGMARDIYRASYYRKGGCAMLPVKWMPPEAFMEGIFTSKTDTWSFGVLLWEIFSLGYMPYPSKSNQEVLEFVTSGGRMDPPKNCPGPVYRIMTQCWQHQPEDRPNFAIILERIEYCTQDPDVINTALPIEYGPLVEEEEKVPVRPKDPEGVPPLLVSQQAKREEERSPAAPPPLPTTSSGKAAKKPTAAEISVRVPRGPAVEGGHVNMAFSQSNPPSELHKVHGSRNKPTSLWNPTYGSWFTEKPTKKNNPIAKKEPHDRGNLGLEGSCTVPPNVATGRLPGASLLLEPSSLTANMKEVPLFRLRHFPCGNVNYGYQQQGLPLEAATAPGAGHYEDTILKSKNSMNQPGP

| Compound | pIC50 [1] | pIC50 [2] |
| --- | --- | --- |
| O=C1CNc2ncc(-c3ccc(NC(=O)N4CCC[C@H]4CN4CCCC4)cc3)cc2N1Cc1cc(F)ccc1F [Example 61, (S)-2-[(pyrrolidin-1-yl)methyl]pyrrolidine-1-carboxylic acid{4-[1-(2,5-difluorobenzyl)-2-oxo-1,2,3,4-tetrahydropyrido[2,3-b]pyrazin-7-yl]phenyl}-amide] | 5.00 to 6.00 | 6.00 to 7.00 |
| c1ccc(CN2CCNc3ncc(-c4cccnc4)cc32)cc1 [Example 34, 1-Benzyl-7-pyridin-3-yl-1,2,3,4-tetrahydropyrido[2,3-b]pyrazine] | 4.00 to 5.00 | 5.00 to 6.00 |
| O=C(NCCN1CCCC1)c1ccc(-c2cnc3c(c2)N(Cc2ccccc2)C(=O)CN3)cc1 [Example 12, 4-(1-Benzyl-2-oxo-1,2,3,4-tetrahydropyrido[2,3-b]pyrazin-7-yl)-N-(2-pyrrolidin-1-yl-ethyl)benzamide, trifluoroacetic acid salt] | 4.00 to 5.00 | 5.00 to 6.00 |
| O=C(NCc1cccc(Cl)c1)c1cnc2c(c1)N(Cc1cc(Cl)ccc1Cl)CCN2 [Example 228, 1-(2,5-Dichlorobenzyl)-1,2,3,4-tetrahydropyrido[2,3-b]pyrazine-7-carboxylic acid 3-chlorobenzylamide] | 4.00 to 5.00 | 5.00 to 6.00 |
| COC(=O)C(C)(C)Nc1ncc(I)cc1[N+](=O)[O-] [Example 90, 2-(5-Iodo-3-nitro-pyridin-2-ylamino)-2-methyl-propionic acid methyl ester] | < 4.00 | < 4.00 |
| O=C(c1ccc(-c2cnc3c(c2)N(C(=O)Cc2ccccc2)CCN3)cc1)N1CCC(N2CCCC2)CC1 [Example 111, 2-Phenyl-1-{7-[4-(4-(pyrrolidin-1-yl)piperidine-1-carbonyl)phenyl]-3,4-dihydro-2H-pyrido[2,3-b]pyrazin-1-yl}-ethanone] | 4.00 to 5.00 | < 4.00 |
| CC(c1cc(F)ccc1F)N1C(=O)CNc2ncc(I)cc21 (stereo not shown) [Example 150, 1-[1-(2,5-Difluorophenyl)ethyl]-7-iodo-3,4-dihydro-1H-pyrido[2,3-b]pyrazin-2-one] | < 4.00 | < 4.00 |
| Clc1cccc(OC2CCNc3ncc(-c4cccc(N5CCOCC5)c4)cc32)c1 (stereo not shown) [Example 279, 4-(3-Chlorophenoxy)-6-(3-morpholin-4-yl-phenyl)-1,2,3,4-tetrahydro-[1,8]naphthyridine] | 4.00 to 5.00 | 5.00 to 6.00 |
| CC(c1c(F)ccc(F)c1Cl)N1C(=O)CNc2ncc(I)cc21 (stereo not shown) [Example 175, 1-[1-(2-Chloro-3,6-difluorophenyl)ethyl]-7-iodo-3,4-dihydro-1H-pyrido[2,3-b]pyrazin-2-one] | < 4.00 | < 4.00 |
| O=C(c1ccc(-c2cnc3c(c2)N(Cc2cccnc2Cl)CCN3)cc1)N1CCC(N2CCCC2)CC1 [Example 303, {4-[1-(2-Chloropyridin-3-ylmethyl)-1,2,3,4-tetrahydropyrido[2,3-b]pyrazin-7-yl]phenyl}-(4-pyrrolidin-1-yl-piperidin-1-yl)methanone] | < 4.00 | < 4.00 |
| O=C(c1ccc(-c2cnc3c(c2)N(Cc2ccccc2OC(F)(F)F)CCN3)cc1)N1CCC(N2CCCC2)CC1 [Example 305, (4-Pyrrolidin-1-yl-piperidin-1-yl)-(4-{1-[2-(trifluoromethoxy)benzyl]-1,2,3,4-tetrahydropyrido[2,3-b]pyrazin-7-yl}phenyl)methanone] | 5.00 to 6.00 | > 7.00 |
| O=C(c1cnc2c(c1)N(Cc1cc(Cl)ccc1Cl)CCN2)N1CCN(C(c2ccccc2)c2ccccc2)CC1 [Example 214, (4-Benzhydrylpiperazin-1-yl)-[1-(2,5-dichlorobenzyl)-1,2,3,4-tetrahydropyrido[2,3-b]pyrazin-7-yl]methanone] | 4.00 to 5.00 | 4.00 to 5.00 |
| O=C(NCCc1cccs1)c1cnc2c(c1)N(Cc1cc(Cl)ccc1Cl)CCN2 [Example 232, 1-(2,5-Dichlorobenzyl)-1,2,3,4-tetrahydropyrido[2,3-b]pyrazine-7-carboxylic acid (2-thiophen-2-yl-ethyl)amide] | < 4.00 | 6.00 to 7.00 |
| CN(C)CCCCCCNC(=O)c1ccc(-c2cnc3c(c2)N(Cc2c(Cl)cccc2Cl)C(=O)CN3)cc1 [Example 143, 4-[1-(2,6-Dichlorobenzyl)-2-oxo-1,2,3,4-tetrahydropyrido[2,3-b]pyrazin-7-yl]-N-(6-dimethylaminohexyl)benzamide, trifluoroacetic acid salt] | 5.00 to 6.00 | 6.00 to 7.00 |
| O=C(NCC1CCCO1)c1cnc2c(c1)N(Cc1cc(Cl)ccc1Cl)CCN2 (stereo not shown) [Example 254, 1-(2,5-Dichlorobenzyl)-1,2,3,4-tetrahydropyrido[2,3-b]pyrazine-7-carboxylic acid (tetrahydrofuran-2-yl-methyl)amide] | < 4.00 | 5.00 to 6.00 |
| CC(=O)c1ccc(F)cc1OC1CCNc2ncc(-c3ccc(C(=O)N4CCN(C)CC4)cc3)cc21 (stereo not shown) [Example 277, 1-(4-Fluoro-2-{6-[4-(4-methylpiperazine-1-carbonyl)phenyl]-1,2,3,4-tetrahydro-[1,8]naphthyridin-4-yloxy}phenyl)ethanone] | 4.00 to 5.00 | 4.00 to 5.00 |
| O=C(NCc1ccc(OC(F)(F)F)cc1)c1cnc2c(c1)N(Cc1cc(Cl)ccc1Cl)CCN2 [Example 230, 1-(2,5-Dichlorobenzyl)-1,2,3,4-tetrahydropyrido[2,3-b]pyrazine-7-carboxylic acid 4-(trifluoromethoxy)benzylamide] | < 4.00 | 5.00 to 6.00 |
| O=C(c1cnc2c(c1)N(Cc1cc(Cl)ccc1Cl)CCN2)N1CCC(O)(c2ccc(Cl)cc2)CC1 [Example 208, [4-(4-Chlorophenyl)-4-hydroxypiperidin-1-yl]-[1-(2,5-dichlorobenzyl)-1,2,3,4-tetrahydropyrido[2,3-b]pyrazin-7-yl]methanone] | < 4.00 | 5.00 to 6.00 |
| Cc1cc(N2CCN(C(=O)c3cnc4c(c3)N(Cc3cc(Cl)ccc3Cl)CCN4)CC2)c2ccccc2n1 [Example 237, [1-(2,5-Dichlorobenzyl)-1,2,3,4-tetrahydropyrido[2,3-b]pyrazin-7-yl]-[4-(2-methylquinolin-4-yl)piperazin-1-yl]methanone] | 5.00 to 6.00 | 5.00 to 6.00 |
| O=C(c1cnc2c(c1)N(Cc1cc(Cl)ccc1Cl)CCN2)N1CCC(N2CCOCC2)CC1 [Example 231, [1-(2,5-Dichlorobenzyl)-1,2,3,4-tetrahydropyrido[2,3-b]pyrazin-7-yl]-(4-morpholin-4-yl-piperidin-1-yl)methanone] | 4.00 to 5.00 | 5.00 to 6.00 |
| CCOC(=O)N1CCC(NC(=O)c2cnc3c(c2)N(Cc2cc(Cl)ccc2Cl)CCN3)CC1 [Example 224, 4-{[1-(2,5-Dichlorobenzyl)-1,2,3,4-tetrahydropyrido[2,3-b]pyrazine-7-carbonyl]amino}piperidine-1-carboxylic acid ethyl ester] | 4.00 to 5.00 | 5.00 to 6.00 |
| CN(C)CCNC(=O)c1cccc(-c2cnc3c(c2)N(Cc2ccccc2)C(=O)CN3)c1 [Example 19, 3-(1-Benzyl-2-oxo-1,2,3,4-tetrahydropyrido[2,3-b]pyrazin-7-yl)-N-(2-dimethylamino-ethyl)benzamide, trifluoroacetic acid salt] | 4.00 to 5.00 | 5.00 to 6.00 |
| CN1CCN(C(=O)c2ccc(-c3cnc4c(c3)C(O)CCN4)cc2)CC1 (stereo not shown) [Example 270, [4-(5-Hydroxy-5,6,7,8-tetrahydro-[1,8]naphthyridin-3-yl)phenyl]-(4-methyl-piperazin-1-yl)methanone] | < 4.00 | < 4.00 |
| O=C(c1cnc2c(c1)N(Cc1cc(Cl)ccc1Cl)CCN2)N1CCN(c2cccc(Cl)c2)CC1 [Example 222, [4-(3-Chlorophenyl)piperazin-1-yl]-[1-(2,5-dichlorobenzyl)-1,2,3,4-tetrahydropyrido[2,3-b]pyrazin-7-yl]methanone] | 4.00 to 5.00 | 4.00 to 5.00 |
| O=C(c1cnc2c(c1)N(Cc1cc(Cl)ccc1Cl)CCN2)N1CCN(C(=O)C2CCCO2)CC1 (stereo not shown) [Example 252, [1-(2,5-Dichlorobenzyl)-1,2,3,4-tetrahydropyrido[2,3-b]pyrazin-7-yl]-[4-(tetrahydrofuran-2-carbonyl)piperazin-1-yl]methanone] | < 4.00 | 4.00 to 5.00 |
| O=C(c1cnc2c(c1)N(Cc1cc(Cl)ccc1Cl)CCN2)N1CCN(c2ccc(Cl)cc2)CC1 [Example 250, [4-(4-Chlorophenyl)piperazin-1-yl]-[1-(2,5-dichlorobenzyl)-1,2,3,4-tetrahydropyrido[2,3-b]pyrazin-7-yl]methanone] | < 4.00 | 6.00 to 7.00 |
